Data: PubChem BioAssay (NCI)
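A five-concentration, 48-hour dose response in 96-well plates underlies each endpoint, interpolated linearly between surrounding concentrations. The concentration for full growth arrest is given as TGI.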

How the values were obtained:
Experiment in all cases: NCI-60 cell line screen, 48 h
[1] = system: 786-0 renal
[2] = system: A498 renal
[3] = system: A549 NSCLC
[4] = system: ACHN renal
[5] = system: CAKI-1 renal
[6] = system: CCRF-CEM leukemia
[7] = system: COLO 205 colon
[8] = system: DLD-1 colon
[9] = system: DMS 114 small cell lung
[10] = system: DMS 273 small cell lung
[11] = system: HCC-2998 colon
[12] = system: HCT-116 colon
[13] = system: HCT-15 colon
[14] = system: HL-60(TB) leukemia
[15] = system: HOP-18 NSCLC
[16] = system: HOP-62 NSCLC
[17] = system: HOP-92 NSCLC
[18] = system: HT29 colon
[19] = system: IGROV1 ovarian
[20] = system: K-562 leukemia
[21] = system: KM12 colon
[22] = system: KM20L2 colon
[23] = system: LOX IMVI melanoma
[24] = system: LXFL 529 NSCLC
[25] = system: M14 melanoma
[26] = system: M19-MEL melanoma
[27] = system: MALME-3M melanoma
[28] = system: NCI-H23 lung
[29] = system: NCI-H460 lung
[30] = system: NCI-H522 lung
[31] = system: OVCAR-3 ovarian
[32] = system: OVCAR-5 ovarian
[33] = system: OVCAR-8 ovarian
[34] = system: RPMI-8226 leukemia
[35] = system: SF-268 CNS
[36] = system: SF-295 CNS
[37] = system: SF-539 CNS
[38] = system: SK-MEL-2 melanoma
[39] = system: SK-MEL-28 melanoma
[40] = system: SK-MEL-5 melanoma
[41] = system: SK-OV-3 ovarian
[42] = system: SN12C renal
[43] = system: SNB-19 CNS
[44] = system: SNB-75 CNS
[45] = system: SNB-78 CNS
[46] = system: SR leukemia
[47] = system: SW-620 colon
[48] = system: TK-10 renal
[49] = system: U251 CNS
[50] = system: UACC-257 melanoma
[51] = system: UACC-62 melanoma
[52] = system: UO-31 renal
[53] = system: EKVX NSCLC
[54] = system: MOLT-4 leukemia
[55] = system: NCI-H226 lung
[56] = system: OVCAR-4 ovarian
[57] = system: RXF 393 renal
[58] = system: XF 498 CNS

## C[C@@H]1C2=CC[C@@]3(C)C(CCC3[C@H](C)[C@H]3C[C@@]4(C)O[C@@](c5cccnc5)(O3)OC4(C)C)[C@@H]2C2OC2[C@@]12CCC(=O)O2 (some centres not stated)
[1]
  TGI: > 100 µM
[2]
  TGI: > 100 µM
[3]
  TGI: > 100 µM
[4]
  TGI: > 100 µM
[5]
  TGI: 79.6 µM
[6]
  TGI: > 100 µM
[7]
  TGI: 77.2 µM
[8]
  TGI: > 100 µM
[9]
  TGI: > 100 µM
[10]
  TGI: > 100 µM
[11]
  TGI: > 100 µM
[12]
  TGI: > 100 µM
[13]
  TGI: > 100 µM
[14]
  TGI: 41.4 µM
[15]
  TGI: 87.1 µM
[16]
  TGI: > 100 µM
[17]
  TGI: 76.9 µM
[18]
  TGI: > 100 µM
[19]
  TGI: > 100 µM
[20]
  TGI: > 100 µM
[21]
  TGI: > 100 µM
[22]
  TGI: 96.2 µM
[23]
  TGI: > 100 µM
[24]
  TGI: > 100 µM
[25]
  TGI: 60.6 µM
[26]
  TGI: > 100 µM
[27]
  TGI: 92.7 µM
[28]
  TGI: > 100 µM
[29]
  TGI: > 100 µM
[30]
  TGI: > 100 µM
[31]
  TGI: 85.9 µM
[32]
  TGI: > 100 µM
[33]
  TGI: > 100 µM
[34]
  TGI: > 100 µM
[35]
  TGI: > 100 µM
[36]
  TGI: > 100 µM
[37]
  TGI: > 100 µM
[38]
  TGI: 58.6 µM
[39]
  TGI: > 100 µM
[40]
  TGI: 78.1 µM
[41]
  TGI: > 100 µM
[42]
  TGI: > 100 µM
[43]
  TGI: > 100 µM
[44]
  TGI: > 100 µM
[45]
  TGI: > 100 µM
[46]
  TGI: > 100 µM
[47]
  TGI: > 100 µM
[48]
  TGI: > 100 µM
[49]
  TGI: > 100 µM
[50]
  TGI: > 100 µM
[51]
  TGI: > 100 µM
[52]
  TGI: 97.1 µM

## COc1ccc(/C(Cl)=C(\c2ccc(OCCN(C)C)cc2)c2ccc(OC(=O)C(C)(C)C)cc2)cc1
[1]
  TGI: 22.6 µM
[3]
  TGI: 28.3 µM
[4]
  TGI: 29.5 µM
[5]
  TGI: 27.8 µM
[6]
  TGI: 24.9 µM
[7]
  TGI: 26.8 µM
[8]
  TGI: 26.6 µM
[9]
  TGI: 24.6 µM
[10]
  TGI: 17.5 µM
[53]
  TGI: 26.6 µM
[11]
  TGI: 29.2 µM
[12]
  TGI: 24.4 µM
[13]
  TGI: 22.4 µM
[14]
  TGI: 21.1 µM
[16]
  TGI: 30.5 µM
[17]
  TGI: 34 µM
[18]
  TGI: 11.5 µM
[19]
  TGI: 32.9 µM
[20]
  TGI: 14.3 µM
[21]
  TGI: 26.4 µM
[22]
  TGI: 12.4 µM
[23]
  TGI: 19.4 µM
[24]
  TGI: 27 µM
[25]
  TGI: 12.1 µM
[26]
  TGI: 26.6 µM
[27]
  TGI: 30 µM
[54]
  TGI: 14.7 µM
[55]
  TGI: 25.7 µM
[28]
  TGI: 29.1 µM
[29]
  TGI: 28.7 µM
[30]
  TGI: 28.6 µM
[31]
  TGI: 28.5 µM
[56]
  TGI: 26.9 µM
[32]
  TGI: 29.1 µM
[33]
  TGI: 30.4 µM
[34]
  TGI: 30.9 µM
[57]
  TGI: 21.7 µM
[35]
  TGI: 28.2 µM
[36]
  TGI: 28 µM
[37]
  TGI: 26.8 µM
[38]
  TGI: 29.4 µM
[39]
  TGI: 23.1 µM
[40]
  TGI: 27 µM
[41]
  TGI: 24.4 µM
[42]
  TGI: 27.2 µM
[43]
  TGI: 29.5 µM
[44]
  TGI: 21.9 µM
[45]
  TGI: 33.2 µM
[46]
  TGI: 21.8 µM
[47]
  TGI: 28.6 µM
[48]
  TGI: 32.3 µM
[49]
  TGI: 26.5 µM
[51]
  TGI: 28 µM
[52]
  TGI: 19.3 µM
[58]
  TGI: 23.7 µM
